The values below come from US12458643B2, “Antidepressant/anxiolytic drug in which PAC1 receptor antagonist is used” (KAGOSHIMA UNIVERSITY, priority 2020, dated 2025).

Series [1] deals with normal mice. In words: Y maze test in normal mice. The format is in vivo, mouse. The following applies: 30 mg/kg i.p., 60 minutes after. The procedure:
A vehicle (10% DMSO solution; dissolved in saline; n=11) or PA-915 (30 mg/kg; n=10) was intraperitoneally administered (0.1 mL/10 g) to male C57BL/6J mice (8 to 12 weeks old). After a lapse of 60 minutes after administration, the mice were allowed to explore the Y maze for 5 minutes in a laboratory (illuminance: 20 lx). The data was indicated by mean±standard error.

The subject of series [2] is normal mice. The series can be described thus: Novel object recognition test in normal mice. The format is in vivo, mouse. The conditions noted are these: 30 mg/kg i.p., 60 minutes later. The method, then:
Male C57BL/6J mice (8 weeks old) were acclimatized to the test box by exploration at 10 min/day for 3 days. On the fourth day, two objects differing in shape were placed in the test box, and the mice were allowed to freely explore the test box for 10 minutes (training trial). 23 hours after the completion of exploration, a vehicle (10% DMSO solution; dissolved in saline; n=10) or PA-915 (30 mg/kg; n=10) was intraperitoneally administered thereto (0.1 mL/10 g). 60 minutes later, one of the two objects was changed to a novel object, and the mice were allowed to explore the test box for 5 minutes (retention trial). Novel and known object exploration times were measured. The results are shown in FIGS. 36B and 36C (B: discrimination index, C: novel object exploration ratio). The data was indicated by mean±standard error.

Regarding `O=C(NCCc1c[nH]cn1)C1CC(=O)N(c2n[nH]c3c(Cl)cccc23)C1` (centres unmarked) [PA-915, N-[2-(1H-imidazol-4-yl)ethyl]-1-(7-chloro-1H-indazol-3-yl)-5-oxo-3-pyrrolidinecarboxamide], in series [1], the “influence on cognitive function (Y maze test)” value was “had no influence on the cognitive function”. For the same molecule, the “influence on cognitive function (novel object recognition test)” value in series [2] is “had no influence on the cognitive function”.
